Data: patent US11759455B2, “Substituted 1H-imidazo[4,5-b]pyridin-2(3H)-ones and their use as GLUN2B receptor modulators” (JANSSEN PHARMACEUTICA NV, priority 2016, dated 2023)

What follows are molecules tested against T1, human GluN1/GluN2B NMDA receptors (Homo sapiens, UniProt Q13224) (assay: Cell-based calcium flux (FLIPR) assay on cloned human NR1/NR2B ion channels expressed in mammalian cells (standard and HTS buffer variants)). Details: standard assay buffer (0.5 mM MgCl2 in dye loading buffer; 137 mM NaCl, 4 mM KCl in assay buffer), human GluN1/GluN2B, read-out: NR2B IC50 (μM) standard assay.
T1 construct: expressed in transfected cells
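Further: stable Tet-On inducible cell line, Ca2+ influx triggered by glutamate at about EC40 plus 10 µM glycine, fluorescent dye read-out over 5 min, normalized to control wells.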

T1 sequence (Q13224 27-1484, other chains not shown): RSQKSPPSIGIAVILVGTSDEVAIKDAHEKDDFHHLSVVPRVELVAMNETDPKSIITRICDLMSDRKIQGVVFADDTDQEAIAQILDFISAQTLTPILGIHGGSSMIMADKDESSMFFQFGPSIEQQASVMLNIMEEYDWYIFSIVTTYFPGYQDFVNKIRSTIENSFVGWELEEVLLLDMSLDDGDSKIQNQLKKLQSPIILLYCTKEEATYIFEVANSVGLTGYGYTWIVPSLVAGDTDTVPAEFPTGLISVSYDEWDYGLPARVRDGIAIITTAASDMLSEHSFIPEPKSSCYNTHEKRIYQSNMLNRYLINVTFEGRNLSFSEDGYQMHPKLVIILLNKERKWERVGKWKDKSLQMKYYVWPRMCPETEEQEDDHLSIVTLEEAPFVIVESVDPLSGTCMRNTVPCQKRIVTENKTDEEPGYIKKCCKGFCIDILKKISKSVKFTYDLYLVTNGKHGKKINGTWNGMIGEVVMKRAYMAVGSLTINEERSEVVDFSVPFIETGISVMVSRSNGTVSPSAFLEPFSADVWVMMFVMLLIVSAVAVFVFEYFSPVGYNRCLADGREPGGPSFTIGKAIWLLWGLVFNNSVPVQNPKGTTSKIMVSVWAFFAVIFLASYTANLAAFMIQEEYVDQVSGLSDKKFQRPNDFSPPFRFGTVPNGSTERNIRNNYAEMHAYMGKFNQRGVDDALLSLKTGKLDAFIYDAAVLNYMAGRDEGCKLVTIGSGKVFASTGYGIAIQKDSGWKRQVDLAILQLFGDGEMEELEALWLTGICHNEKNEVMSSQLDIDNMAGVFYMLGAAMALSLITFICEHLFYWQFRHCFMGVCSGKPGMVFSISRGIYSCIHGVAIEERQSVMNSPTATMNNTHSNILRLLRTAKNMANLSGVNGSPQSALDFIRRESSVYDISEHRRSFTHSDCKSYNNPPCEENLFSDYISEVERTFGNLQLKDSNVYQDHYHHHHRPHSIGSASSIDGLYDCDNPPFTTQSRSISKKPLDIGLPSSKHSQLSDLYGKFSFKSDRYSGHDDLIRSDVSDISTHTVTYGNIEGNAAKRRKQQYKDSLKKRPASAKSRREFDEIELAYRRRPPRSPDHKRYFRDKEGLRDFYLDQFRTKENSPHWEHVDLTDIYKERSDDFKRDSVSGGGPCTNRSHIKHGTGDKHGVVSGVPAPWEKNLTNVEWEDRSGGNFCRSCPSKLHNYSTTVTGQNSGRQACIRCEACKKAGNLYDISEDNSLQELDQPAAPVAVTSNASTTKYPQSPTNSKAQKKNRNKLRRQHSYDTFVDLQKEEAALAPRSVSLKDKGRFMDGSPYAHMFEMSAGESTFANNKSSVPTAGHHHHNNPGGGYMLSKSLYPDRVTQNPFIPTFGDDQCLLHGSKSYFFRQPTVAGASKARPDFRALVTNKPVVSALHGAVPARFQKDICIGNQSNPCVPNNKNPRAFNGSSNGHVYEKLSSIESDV

| IC50 [µM] | SMILES |
| --- | --- |
| 0.305 | Cn1c(=O)n(Cc2csnn2)c2cc(-c3ccc(C(F)(F)F)s3)cnc21 [Example 568, 3-Methyl-1-(thiadiazol-4-ylmethyl)-6-[5-(trifluoromethyl)-2-thienyl]imidazo[4,5-b]pyridin-2-one] |
| 0.412 | Cc1noc(Cn2c(=O)n(C)c3ncc(-c4ccc(C(F)(F)F)s4)cc32)n1 [Example 569, 3-Methyl-1-[(3-methyl-1,2,4-oxadiazol-5-yl)methyl]-6-[5-(trifluoromethyl)-2-thienyl]imidazo[4,5-b]pyridin-2-one] |
| 0.139 | Cc1cc(Cn2c(=O)n(C)c3ncc(-c4ccc(C(F)(F)F)s4)cc32)no1 [Example 570, 3-Methyl-1-[(5-methylisoxazol-3-yl)methyl]-6-[5-(trifluoromethyl)-2-thienyl]imidazo[4,5-b]pyridin-2-one] |
| 0.037 | Cc1cc(Cn2c(=O)n(C)c3ncc(-c4ccc(F)c(C)c4F)cc32)no1 [Example 571, 6-(2,4-Difluoro-3-methyl-phenyl)-3-methyl-1-[(5-methylisoxazol-3-yl)methyl]imidazo[4,5-b]pyridin-2-one] |
| 0.15 | Cc1c(F)ccc(-c2cnc3c(c2)n(Cc2cnn(C)c2)c(=O)n3C)c1F [Example 572, 6-(2,4-Difluoro-3-methyl-phenyl)-3-methyl-1-[(1-methylpyrazol-4-yl)methyl]imidazo[4,5-b]pyridin-2-one] |
| 0.043 | Cc1noc(Cn2c(=O)n(C)c3ncc(-c4ccc(F)c(C)c4F)cc32)n1 [Example 573, 6-(2,4-Difluoro-3-methyl-phenyl)-3-methyl-1-[(3-methyl-1,2,4-oxadiazol-5-yl)methyl]imidazo[4,5-b]pyridin-2-one] |
| 0.046 | Cc1c(F)ccc(-c2cnc3c(c2)n(Cc2cn(C)nn2)c(=O)n3C)c1F [Example 574, 6-(2,4-Difluoro-3-methyl-phenyl)-3-methyl-1-[(1-methyltriazol-4-yl)methyl]imidazo[4,5-b]pyridin-2-one] |
| 0.028 | Cc1nnc(Cn2c(=O)n(C)c3ncc(-c4ccc(F)c(C)c4F)cc32)o1 [Example 575, 6-(2,4-Difluoro-3-methyl-phenyl)-3-methyl-1-[(5-methyl-1,3,4-oxadiazol-2-yl)methyl]imidazo[4,5-b]pyridin-2-one] |
| 0.05 | Cc1c(F)ccc(-c2cnc3c(c2)n(Cc2csnn2)c(=O)n3C)c1F [Example 576, 6-(2,4-Difluoro-3-methyl-phenyl)-3-methyl-1-(thiadiazol-4-ylmethyl)imidazo[4,5-b]pyridin-2-one] |
| 0.064 | CN(CCF)C(=O)Cn1c(=O)n(C)c2ncc(-c3ccc(C(F)(F)F)s3)cc21 [Example 577, N-(2-Fluoroethyl)-N-methyl-2-[3-methyl-2-oxo-6-[5-(trifluoromethyl)-2-thienyl]imidazo[4,5-b]pyridin-1-yl]acetamide] |
| 0.014 | O=C(Cn1c(=O)[nH]c2ncc(-c3ccc(C(F)(F)F)s3)cc21)N1CC(F)C1 [Example 578, 1-[2-(3-Fluoroazetidin-1-yl)-2-oxo-ethyl]-6-[5-(trifluoromethyl)-2-thienyl]-3H-imidazo[4,5-b]pyridin-2-one] |
| 0.015 | Cc1c(F)ccc(-c2cnc3[nH]c(=O)n(CC(=O)N4CCC4)c3c2)c1F [Example 579, 1-[2-(Azetidin-1-yl)-2-oxo-ethyl]-6-(2,4-difluoro-3-methyl-phenyl)-3H-imidazo[4,5-b]pyridin-2-one] |
| 0.026 | Cc1cccc(-c2cnc3[nH]c(=O)n(CC(=O)N4CC(F)(F)C4)c3c2)c1 [Example 580, 1-[2-(3,3-Difluoroazetidin-1-yl)-2-oxo-ethyl]-6-(m-tolyl)-3H-imidazo[4,5-b]pyridin-2-one] |
| 0.032 | Cc1cccc(-c2cnc3c(c2)n(CC(=O)N2CC(F)(F)C2)c(=O)n3C)c1 [Example 581, 1-[2-(3,3-Difluoroazetidin-1-yl)-2-oxo-ethyl]-3-methyl-6-(m-tolyl)imidazo[4,5-b]pyridin-2-one] |
| 0.051 | Cc1cccc(-c2cnc3c(c2)n(CC(=O)N(C)C)c(=O)n3C)c1 [Example 583, N,N-Dimethyl-2-[3-methyl-6-(m-tolyl)-2-oxo-imidazo[4,5-b]pyridin-1-yl]acetamide] |
| 0.024 | Cn1c(=O)n(CC(=O)N2CCC2)c2cc(-c3ccc(F)c(C(F)F)c3)cnc21 [Example 584, 1-[2-(Azetidin-1-yl)-2-oxo-ethyl]-6-[3-(difluoromethyl)-4-fluoro-phenyl]-3-methyl-imidazo[4,5-b]pyridin-2-one] |
| 0.018 | Cn1c(=O)n(CC(=O)N2CC(F)C2)c2cc(-c3ccc(F)c(C(F)F)c3)cnc21 [Example 585, 6-[3-(Difluoromethyl)-4-fluoro-phenyl]-1-[2-(3-fluoroazetidin-1-yl)-2-oxo-ethyl]-3-methyl-imidazo[4,5-b]pyridin-2-one] |
| 0.051 | Cn1c(=O)n(CC(=O)N2CC(F)(F)C2)c2cc(-c3ccc(F)c(C(F)F)c3)cnc21 [Example 586, 1-[2-(3,3-Difluoroazetidin-1-yl)-2-oxo-ethyl]-6-[3-(difluoromethyl)-4-fluoro-phenyl]-3-methyl-imidazo[4,5-b]pyridin-2-one] |

| IC50 [µM] | SMILES |
| --- | --- |
| 0.035 | CN(C)C(=O)Cn1c(=O)n(C)c2ncc(-c3ccc(F)c(OC(F)F)c3)cc21 [Example 587, 2-[6-[3-(Difluoromethoxy)-4-fluoro-phenyl]-3-methyl-2-oxo-imidazo[4,5-b]pyridin-1-yl]-N,N-dimethyl-acetamide] |
| 0.023 | Cn1c(=O)n(CC(=O)N2CCC2)c2cc(-c3ccc(F)c(OC(F)F)c3)cnc21 [Example 588, 1-[2-(Azetidin-1-yl)-2-oxo-ethyl]-6-[3-(difluoromethoxy)-4-fluoro-phenyl]-3-methyl-imidazo[4,5-b]pyridin-2-one] |
| 0.028 | Cn1c(=O)n(CC(=O)N2CC(F)C2)c2cc(-c3ccc(F)c(OC(F)F)c3)cnc21 [Example 589, 6-[3-(Difluoromethoxy)-4-fluoro-phenyl]-1-[2-(3-fluoroazetidin-1-yl)-2-oxo-ethyl]-3-methyl-imidazo[4,5-b]pyridin-2-one] |
| 0.025 | Cn1c(=O)n(CC(=O)N2CC(F)(F)C2)c2cc(-c3ccc(F)c(OC(F)F)c3)cnc21 [Example 590, 1-[2-(3,3-Difluoroazetidin-1-yl)-2-oxo-ethyl]-6-[3-(difluoromethoxy)-4-fluoro-phenyl]-3-methyl-imidazo[4,5-b]pyridin-2-one] |
| 0.034 | CN(C)C(=O)Cn1c(=O)n(C)c2ncc(-c3ccc(Cl)c(OC(F)F)c3)cc21 [Example 591, 2-[6-[4-Chloro-3-(difluoromethoxy)phenyl]-3-methyl-2-oxo-imidazo[4,5-b]pyridin-1-yl]-N,N-dimethyl-acetamide] |
| 0.071 | Cn1c(=O)n(CC(=O)N2CCC2)c2cc(-c3ccc(Cl)c(OC(F)F)c3)cnc21 [Example 592, 1-[2-(Azetidin-1-yl)-2-oxo-ethyl]-6-[4-chloro-3-(difluoromethoxy)phenyl]-3-methyl-imidazo[4,5-b]pyridin-2-one] |
| 0.053 | Cn1c(=O)n(CC(=O)N2CC(F)C2)c2cc(-c3ccc(Cl)c(OC(F)F)c3)cnc21 [Example 593, 6-[4-Chloro-3-(difluoromethoxy)phenyl]-1-[2-(3-fluoroazetidin-1-yl)-2-oxo-ethyl]-3-methyl-imidazo[4,5-b]pyridin-2-one] |
| 0.082 | Cn1c(=O)n(CC(=O)N2CC(F)(F)C2)c2cc(-c3ccc(Cl)c(OC(F)F)c3)cnc21 [Example 594, 6-[4-Chloro-3-(difluoromethoxy)phenyl]-1-[2-(3,3-difluoroazetidin-1-yl)-2-oxo-ethyl]-3-methyl-imidazo[4,5-b]pyridin-2-one] |
| 0.974 | Cc1c(F)ccc(-c2cnc3c(c2)n(CC(=O)N2CCC2)c(=O)n3CF)c1F [Example 595, 1-[2-(Azetidin-1-yl)-2-oxo-ethyl]-6-(2,4-difluoro-3-methyl-phenyl)-3-(fluoromethyl)imidazo[4,5-b]pyridin-2-one] |
| 0.066 | CN(C)C(=O)Cn1c(=O)n(CF)c2ncc(-c3ccc(C(F)(F)F)s3)cc21 [Example 596, 2-[3-(Fluoromethyl)-2-oxo-6-[5-(trifluoromethyl)-2-thienyl]imidazo[4,5-b]pyridin-1-yl]-N,N-dimethyl-acetamide] |
| 0.063 | O=C(Cn1c(=O)n(CF)c2ncc(-c3ccc(C(F)(F)F)s3)cc21)N1CC(F)C1 [Example 597, 1-[2-(3-Fluoroazetidin-1-yl)-2-oxo-ethyl]-3-(fluoromethyl)-6-[5-(trifluoromethyl)-2-thienyl]imidazo[4,5-b]pyridin-2-one] |
| 0.173 | O=C(Cn1c(=O)n(CF)c2ncc(-c3ccc(C(F)(F)F)s3)cc21)N1CCCC1 [Example 598, 3-(Fluoromethyl)-1-(2-oxo-2-pyrrolidin-1-yl-ethyl)-6-[5-(trifluoromethyl)-2-thienyl]imidazo[4,5-b]pyridin-2-one] |
| 0.025 | Cc1c(F)ccc(-c2cnc3c(c2)n(CC(=O)N(C)C)c(=O)n3CF)c1F [Example 599, 2-[6-(2,4-Difluoro-3-methyl-phenyl)-3-(fluoromethyl)-2-oxo-imidazo[4,5-b]pyridin-1-yl]-N,N-dimethyl-acetamide] |
| 0.017 | Cc1c(F)ccc(-c2cnc3c(c2)n(CC(=O)N2CC(F)C2)c(=O)n3CF)c1F [Example 600, 6-(2,4-Difluoro-3-methyl-phenyl)-1-[2-(3-fluoroazetidin-1-yl)-2-oxo-ethyl]-3-(fluoromethyl)imidazo[4,5-b]pyridin-2-one] |
| 0.204 | COc1cccc(-c2cnc3[nH]c(=O)n(CC(=O)c4cccs4)c3c2)c1 [Example 602, 6-(3-Methoxyphenyl)-1-[2-oxo-2-(2-thienyl)ethyl]-3H-imidazo[4,5-b]pyridin-2-one] |
| 2.09 | CCOc1ccccc1-c1cnc2[nH]c(=O)n(Cc3cccc(OC)c3)c2c1 [Example 605, 6-(2-Ethoxyphenyl)-1-[(3-methoxyphenyl)methyl]-3H-imidazo[4,5-b]pyridin-2-one] |
| 2.18 | CCOc1ccccc1-c1cnc2[nH]c(=O)n(Cc3ccc(F)cc3)c2c1 [Example 606, 6-(2-Ethoxyphenyl)-1-[(4-fluorophenyl)methyl]-3H-imidazo[4,5-b]pyridin-2-one] |
